Experimental data reported in patent publication US20240350643A1, “PROTEIN DEGRADATION AGENT” (SUZHOU KINTOR PHARMACEUTICALS, INC., priority 2021, published 2024).

Experiments:
c-Myc protein = target: T1, c-Myc protein (Homo sapiens, UniProt P01106); assay: Ability of compounds to degrade c-Myc protein in HL60 cells (ELISA); format: cell-based; conditions: HL-60, 1 μM compound, 24 h, read-out: HL60 cells Protein degradation rate (1 μM)
T1 construct: endogenous in cells; host or cells: HL60 cells
Description: I Activity test 1: Ability of compounds to degrade c-Myc protein in HL60 cells:
HL60 cells in the exponential growth phase were centrifuged, diluted with fresh culture mediums to 6×10^4 cells/100 μL and plated into a 96-well plate at 100 μL per well.
Preparation of test compounds: the compounds were weighed and diluted with DMSO to a 10 mM stock solution for later use. According to test requirements, drugs were diluted with cell culture mediums, with ten-fold dilutions starting from 10 μM, to achieve 3 concentration gradients: 10 μM, 1 μM and 100 NM; and finally, 1 μL of the drugs (DMSO content: 0.01%) were added to each well. For the blank control group, DMSO was also diluted with cell culture mediums, and finally, 1 μL of the control reagent (DMSO content: 0.01%) was added to each well.
3. Effect of drugs on c-Myc in cells as determined by ELISA
After 24 h of drug action, the culture mediums were removed, and the cells were washed once with ice-cold 1× PBS. PBS was removed, and 100 μL of ice-cold 1× Cell Lysis Buffer plus 1 mM phenylmethylsulfonyl fluoride (PMSF) was added to each well. The plate was incubated on ice for 20 min and centrifuged at 4000 RPM at 4° C. for 10 min for later use.
4. Reagent and antibody preparation in ELISA kit 1× wash buffer • 1). 16 mL of ELISA wash buffer concentrate (25×) was diluted with 384 mL of deionized water or distilled water, labeled as 1× Wash Buffer. • 2). The concentrate and 1× Wash Buffer were stored in the refrigerator. The diluted buffer was used within 14 days.
The cell extraction buffer contains 10 mM Tris (pH 7.4), 100 mM NaCl, 1 mM EDTA, 1 mM EGTA, 1 mM NaF, 20 mM Na4P2O7 2 mM Na3VO4. 1% Triton™ ×-100, 10% glycerol, 0.1% SDS and 0.5% deoxycholate. Immediately before use, PMSF (0.3 M stock solution in DMSO) was added to the buffer to a final concentration of 1 mM.
Standard curve configuration: The standard liquid was diluted using glass or plastic tubes. • 1). Huc-Myc (total) standard liquid (Invitrogen, KH02041) was reconstituted with a standard dilution to 1000 pg/mL. Refer to the standard vial label for instructions. The contents were gently swirled or mixed and then allowed to stand for 10 minutes to ensure complete reconstitution, labeled as 1,000 pg/mL human c-Myc. The standard liquid was used within 1 hour after reconstitution. • 2). 250 μL of standard dilution buffers were added to 7 test tubes respectively labeled 500, 250, 125, 62.5, 31.25, 15,63 and 0 pg/mL. • 3). 250 μL of the 1000 pg/ml standard stock solution was added to the first EP tube to a concentration of 500 pg/mL, vortexed and mixed evenly. 250 μL of the resulting mixture was further pipetted and added to the second EP tube to a concentration of 250 pg/mL. Serial dilutions were performed until the sixth EP tube with a concentration of 15.63 pg/mL. Dilution was not performed on the last EP tube. • 4). The remaining reconstituted standard liquid should be discarded, or aliquoted and frozen at −80° C. for further use. Standards can be frozen and thawed only once without losing immunoreactivity.
1× anti-rabbit IgG HRP solution: 1× anti-rabbit IgG HRP solution was prepared within 15 minutes of use. The anti-rabbit IgG HRP (100×) contained 50% viscous glycerol. To ensure accurate dilutions, the following operations were carried out: 1 For each 8-well test strip used in the test, 10 μl, of the anti-rabbit IgG -IRP (100×) solution was pipetted, wherein the pipette tip was wiped with clean absorbent paper to remove excess solutions, and then the solution was dispensed into a test tube containing 1 mL of HRP diluent and mixed thoroughly. 2. The unused anti-rabbit IgG HRP (100×) was placed in the refrigerator for storage.
50 μL of the standard liquid was added to the appropriate wells and not added to the blank control well. Except for the blank control well, 50 μL of Hu c-Myc (total) detection antibody solution was added to each well and mixed by tapping the side face of the plate. […]

HL60 cells = assay: Anti-proliferation ability of compounds on HL60 cells (CTG); format: cell-based, human; conditions: Homo sapiens, HL-60, 72 h, 3 days, CellTiter-Glo, read-out: HL60 cells Proliferation inhibitory activity
Description: II. Activity test 2: Anti-proliferation ability of compounds on HL60 cells: 1 Cell plating
HL60 cells in the logarithmic growth phase were counted and plated evenly in a 96-well transparent bottom white plate at 20000 cells per well and 100 μL per well.
A certain amount of the compounds was weighed and diluted with DMSO to a 10 mM stock solution. The culture mediums corresponding to the cells were taken, and the drugs were diluted to the concentration required by the test, shaken gently and mixed evenly. 50 μl of the gradient dilution of the diluted compound was added to each well of the plated cells, and 50 μL of 0.1% DMSO was added to the control group. The plate was shaken gently, mixed evenly and incubated in a cell culture incubator for 3 days.
• 3.1 The CellTiter-GLo™ (CTG) reagent was taken in advance from the −20° C. refrigerator and equilibrated to room temperature in the dark (white bottle+brown bottle, 1:1 mixing evenly into the brown bottle, for later use). • 3.2 The 96-well plate was taken out and inspected under a microscope for growth situation. • 3.3 The bottom of the 96-well plate was tagged with white paper, and then the plate was wrapped with tin foil paper, shaken at 37° C. at 300 r for 10 min and mixed evenly. • 3.4 50 ul of CTG detection reagent was added to each well, Luminescence signal was detected using a microplate reader, and the inhibition rate was calculated. IC50 values of the compounds were calculated by XLfit software to evaluate the proliferation inhibitory activity on HL60 cells.

T1 sequence (P01106 whole entry): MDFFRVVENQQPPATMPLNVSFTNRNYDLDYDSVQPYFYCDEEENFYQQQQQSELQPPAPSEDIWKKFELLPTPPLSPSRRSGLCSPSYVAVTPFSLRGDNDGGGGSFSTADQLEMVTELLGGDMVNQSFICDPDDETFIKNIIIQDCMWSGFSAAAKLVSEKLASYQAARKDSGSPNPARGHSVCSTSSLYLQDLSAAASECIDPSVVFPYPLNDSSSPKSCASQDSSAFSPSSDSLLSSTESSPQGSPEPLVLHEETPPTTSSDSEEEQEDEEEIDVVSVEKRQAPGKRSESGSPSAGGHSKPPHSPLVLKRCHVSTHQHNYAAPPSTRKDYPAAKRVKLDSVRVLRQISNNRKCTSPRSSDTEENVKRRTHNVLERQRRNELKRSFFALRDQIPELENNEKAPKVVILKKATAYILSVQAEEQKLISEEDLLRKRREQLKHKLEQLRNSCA

SMILES | inhibition at 1 µM (c-Myc protein) [%] | IC50 (HL60 cells) [nM]
CC(C)(C(=O)NCc1ccc(CNC(=O)c2ccc3c(c2)C(=O)N(C2CCC(=O)NC2=O)C3=O)cc1)n1c2ccccc2c2cccnc21 (stereo not drawn) [A32] | 60 to 90 | 433 ± 166
O=C1CCC(N2C(=O)c3ccc(C(=O)NC[C@H]4CC[C@H](CNC(=O)Nc5cccc6cccnc56)CC4)cc3C2=O)C(=O)N1 (stereo partly drawn) [A47] | 60 to 90 | 1040 ± 171
CS(=O)(=O)N(CCn1c2ccccc2c2cccnc21)Cc1ccc(CNC(=O)c2ccc3c(c2)C(=O)N(C2CCC(=O)NC2=O)C3=O)cc1 (stereo not drawn) [A78] | 60 to 90 | 4.6
O=C(Cn1c2ccccc2c2cccnc21)NCc1cccc(CNC(=O)c2ccc3c(c2)C(=O)N(C2CCC(=O)NC2=O)C3=O)c1 (stereo not drawn) [A38] | 30 to 60 | 66.2 ± 14.6
O=C(Cn1c2ccccc2c2cccnc21)NCCCCCCCCCc1ccc2c(c1)C(=O)N(C1CCC(=O)NC1=O)C2=O (stereo not drawn) [A20] | 60 to 90 | 490 ± 64.9
O=C1CCC(N2C(=O)c3ccc(C(=O)NC[C@H]4CC[C@H](CNC(=O)Nc5cccc6ccccc56)CC4)cc3C2=O)C(=O)N1 (stereo partly drawn) [A46] | 60 to 90 | 50.2 ± 14
O=C1CCC(N2C(=O)c3ccc(C(=O)NCc4ccc(CNCCc5cccc6ccccc56)cc4)cc3C2=O)C(=O)N1 (stereo not drawn) [A73] | 60 to 90 | 59.3 ± 5.7
N#CCCN(CCc1cccc2ccccc12)Cc1ccc(CNC(=O)c2ccc3c(c2)C(=O)N(C2CCC(=O)NC2=O)C3=O)cc1 (stereo not drawn) [A92] | 60 to 90 | 440 ± 120
COc1cccc(CC(=O)NCc2ccc(CNC(=O)c3ccc4c(c3)C(=O)N(C3CCC(=O)NC3=O)C4=O)cc2)c1 (stereo not drawn) [A55] | 60 to 90 | 181 ± 32.8
O=C(Cc1ccccc1C(F)(F)F)NCc1ccc(CNC(=O)c2ccc3c(c2)C(=O)N(C2CCC(=O)NC2=O)C3=O)cc1 (stereo not drawn) [A67] | 60 to 90 | 1070 ± 617
COCCN(CCc1cccc2ccccc12)Cc1ccc(CNC(=O)c2ccc3c(c2)C(=O)N(C2CCC(=O)NC2=O)C3=O)cc1 (stereo not drawn) [A90] | 60 to 90 | < 3
CC(C)(C)OC(=O)NC[C@H]1CC[C@H](CNC(=O)c2ccc3c(c2)C(=O)N(C2CCC(=O)NC2=O)C3=O)CC1 (stereo partly drawn) [A26] | 30 to 60 | 2820 ± 1060
CN(Cc1ccc(CNC(=O)c2ccc3c(c2)C(=O)N(C2CCC(=O)NC2=O)C3=O)cc1)C(=O)Cn1c2ccccc2c2cccnc21 (stereo not drawn) [A72] | 60 to 90 | 45.6 ± 3

Results, then the compound that gave them:

inhibition at 1 µM (c-Myc protein) [%] | IC50 (HL60 cells) [nM] | SMILES
10 to 30 | 1100 ± 295 | O=C(Cc1cccc2ccccc12)NCc1ccc(CNC(=O)c2ccc3c(c2)C(=O)N(C2CCC(=O)NC2=O)C3=O)nc1 (stereo not drawn) [A124]
60 to 90 | 4.4 | CN(CCn1c2ccccc2c2cccnc21)Cc1ccc(CNC(=O)c2ccc3c(c2)C(=O)N(C2CCC(=O)NC2=O)C3=O)cc1F (stereo not drawn) [A110]
60 to 90 | 16.9 | O=C(Cn1c2ccccc2c2cccnc21)NCc1ccc(C(=O)NCc2ccc3c(c2)C(=O)N(C2CCC(=O)NC2=O)C3=O)cc1 (stereo not drawn) [A178]
60 to 90 | 32.1 ± 1.3 | O=C(Cc1nccc2ccccc12)NCc1ccc(CNCc2ccc3c(c2)C(=O)N(C2CCC(=O)NC2=O)C3=O)cc1 (stereo not drawn) [A186]
60 to 90 | 8.5 ± 0.4 | CN(CCc1cccc2ccccc12)Cc1ccc(CNC(=O)c2ccc3c(c2)C(=O)N(C2CCC(=O)NC2=O)C3=O)nc1 (stereo not drawn) [A126]
60 to 90 | 2.4 ± 0.3 | O=C1CCC(N2Cc3cc(C(=O)NCc4ccc(C5(NC(=O)Cn6c7ccccc7c7cccnc76)CC5)cc4F)ccc3C2=O)C(=O)N1 (stereo not drawn) [A164]
60 to 90 | 1.2 ± 0.1 | O=C1CCC(N2Cc3cc(C(=O)NCc4ccc(CNc5nccc(-c6cccc7ccccc67)n5)cc4)ccc3C2=O)C(=O)N1 (stereo not drawn) [A220]
60 to 90 | 4.4 ± 3.2 | COc1cc(CN(C)CCc2cccc3ccccc23)ccc1CNC(=O)c1ccc2c(c1)C(=O)N(C1CCC(=O)NC1=O)C2=O (stereo not drawn) [A113]
60 to 90 | 0.2 ± 0.1 | CN(CCc1cccc2ccccc12)Cc1ccc(CC(=O)Nc2ccc3c(c2)CN(C2CCC(=O)NC2=O)C3=O)cc1 (stereo not drawn) [A205]
60 to 90 | 44.4 ± 0.3 | CN(CCc1cccc2ccccc12)Cc1ccc(CNC(=O)c2ccc3c(c2)C(=O)N(C2CCC(=O)NC2=O)C3=O)c(C(F)(F)F)c1 (stereo not drawn) [A119]
60 to 90 | 2.5 ± 0.7 | O=C(Cn1c2ccccc2c2cccnc21)NCc1ccc(CNC(=O)c2ccc3c(c2)C(=O)N(C2CCC(=O)NC2=O)C3=O)c(F)c1 (stereo not drawn) [A104]
60 to 90 | 0.9 | CN(CCc1ccc(Cl)cc1Cl)Cc1ccc(CNC(=O)c2ccc3c(c2)C(=O)N(C2CCC(=O)NC2=O)C3=O)cc1 (stereo not drawn) [A100]
60 to 90 | 0.5 ± 0.1 | O=C(Cn1c2ccccc2c2cccnc21)NCc1ccc(CNC(=O)c2ccc3c(c2)CN(C2CCC(=O)NC2=O)C3=O)c(F)c1 (stereo not drawn) [A157]
60 to 90 | 9.5 | O=C(Cc1cccc2ccccc12)NCc1ccc(C(=O)NCc2ccc3c(c2)C(=O)N(C2CCC(=O)NC2=O)C3=O)cc1 (stereo not drawn) [A177]
60 to 90 | 5.6 ± 1 | O=C(Cc1cccc2ccccc12)NCc1ccc(CNCc2ccc3c(c2)C(=O)N(C2CCC(=O)NC2=O)C3=O)c(F)c1 (stereo not drawn) [A189]
60 to 90 | 2.2 ± 0.8 | O=C(Cc1cccc2ccccc12)NCc1ccc(CNC(=O)c2ccc3c(c2)CN(C2CCC(=O)NC2=O)C3=O)c(C(F)(F)F)c1 (stereo not drawn) [A159]
60 to 90 | 5 ± 0.2 | O=C(Cn1c2ccccc2c2cccnc21)NCc1ccc(CNC(=O)c2ccc3c(c2)CN(C2CCC(=O)N(COP(=O)(O)O)C2=O)C3=O)cc1 (stereo not drawn) [A228]
